pIC50: −log10 of the molar value.
Tests used:
[1] = molecular target: intracellular phosphorylation of EGFR (Tyr1068) in PC-9 cells (Homo sapiens, UniProt P00533, DEL746-750); assay: PC-9 pEGFR AlphaLISA assay; format: cell-based; conditions: 4 hours incubation, read-out: Phos EGFR PC9 IC50
Procedure: PC-9/A431 pEGFR AlphaLISA Assays
Inhibitory effects of compounds were evaluated in cellular assays that measure level of intracellular phosphorylation of EGFR in PC-9 (ECACC, #90071810, Milipore/Sigma) and A431 cell lines (ATCC, CRL-1555) using AlphaLISA sureFire ultra p-EGFR (Tyr1068) assay kit (PerkinElmer, ALSU-PEGFR-A50K). PC-9 cells were seeded at 3.125×10^5 cells/ml in 40 μL phenol-free DMEM supplemented with 10% FBS per well of a 384 well plate (Corning, 3764), while A431 were seeded at […] in 40 μL in phenol-free DMEM with 0.5% FBS. Cells were allowed to adhere overnight at 37° C./5% CO2. On the next day, compounds were transferred at 4-fold, 10-point serial dilution from compound source plate to cell plates using liquid handler Echo550 and were incubated at 37° C./5% CO2 for 4 hours. A431 cells were stimulated prior harvesting for 10 min with EGF at final concentration of 30 ng/ml in the incubator. Medium was removed from the plates and cells were lysed with 10 μL of 1× AlphaLISA lysis buffer (supplemented with 1× protease/phosphatase inhibitor cocktail) followed by shaking at 600 rpm for 30 minutes at room temperature. Lysates were transferred to Optiplate (Apricot designs) and 5 ul of 1× acceptor bead mix (prepared just before use) was added to each well followed by incubation at room temperature for 1.5-2 h in dark. Then 5 μL of freshly-made donor bead mix is added to each well under subdued lighting or green filters, was mixed well on the shaker and the plate was sealed and left for an overnight incubation at room temperature in dark. On the next day, the plate was read the Envision using standard AlphaLisa settings. Percent of pEGFR inhibition was plotted against log concentration of compounds to generate IC50 values.

[2] = molecular target: T1, EGFR L858R (Homo sapiens, UniProt P00533, L858R); assay: Biochemical EGFR inhibition assay (Caliper mobility shift), EGFR L858R; conditions: biochemical Caliper mobility shift assay, EGFR L858R enzyme; read-out: Enz EGFR L858R IC50
T1 construct: purchased SignalChem E10-122BG
T1 sequence (P00533 25-1210 L858R): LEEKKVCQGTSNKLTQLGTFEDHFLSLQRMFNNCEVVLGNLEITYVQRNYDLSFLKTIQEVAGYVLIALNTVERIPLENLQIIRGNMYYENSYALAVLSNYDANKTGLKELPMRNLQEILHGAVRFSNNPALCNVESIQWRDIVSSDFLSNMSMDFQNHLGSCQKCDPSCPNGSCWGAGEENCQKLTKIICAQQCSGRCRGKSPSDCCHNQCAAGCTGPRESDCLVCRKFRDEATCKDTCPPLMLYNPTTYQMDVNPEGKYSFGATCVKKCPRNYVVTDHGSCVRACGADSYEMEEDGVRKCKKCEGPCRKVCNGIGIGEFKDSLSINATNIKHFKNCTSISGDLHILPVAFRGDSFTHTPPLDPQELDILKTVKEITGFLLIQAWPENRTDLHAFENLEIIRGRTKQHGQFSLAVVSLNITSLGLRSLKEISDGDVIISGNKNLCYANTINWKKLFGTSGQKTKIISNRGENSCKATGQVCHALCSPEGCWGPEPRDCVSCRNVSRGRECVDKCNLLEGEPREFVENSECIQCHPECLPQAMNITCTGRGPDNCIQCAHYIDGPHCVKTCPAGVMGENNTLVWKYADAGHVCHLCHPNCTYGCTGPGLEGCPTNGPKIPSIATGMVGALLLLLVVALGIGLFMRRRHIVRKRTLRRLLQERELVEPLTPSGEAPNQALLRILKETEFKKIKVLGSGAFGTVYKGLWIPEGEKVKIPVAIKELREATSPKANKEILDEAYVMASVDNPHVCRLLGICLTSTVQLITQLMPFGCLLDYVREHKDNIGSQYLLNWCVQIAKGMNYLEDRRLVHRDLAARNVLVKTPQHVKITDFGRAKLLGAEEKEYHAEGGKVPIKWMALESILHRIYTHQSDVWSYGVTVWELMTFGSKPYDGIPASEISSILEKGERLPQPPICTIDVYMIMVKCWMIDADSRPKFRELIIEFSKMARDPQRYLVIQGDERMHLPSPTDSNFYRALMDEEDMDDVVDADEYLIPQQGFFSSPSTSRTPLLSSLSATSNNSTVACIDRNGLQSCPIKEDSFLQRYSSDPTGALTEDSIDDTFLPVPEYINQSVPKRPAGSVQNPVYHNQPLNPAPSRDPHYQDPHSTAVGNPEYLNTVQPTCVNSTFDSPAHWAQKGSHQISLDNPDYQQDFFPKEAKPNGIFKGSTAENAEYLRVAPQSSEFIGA
Procedure: Inhibitory effects of the compounds of the disclosure were measured in biochemical assays that measure the phosphorylation activity of EGFR enzyme phosphorylates 2.5 micromolar 5-FAM-[…]-CONH2 peptide substrate (ProfilerPro Kinase Peptide Substrate 22, PerkinElmer, Part #760366) in the presence of adenosine-5′-triphosphate (ATP) and varying concentrations of the test compound in 100 mM 2-[4-(2-hydroxyethyl)piperazin-1-yl]ethanesulfonic acid (HEPES), pH 7.5, 10 mM MgCl2, 0.015% Brij-35, 1 mM dithiothreitol (DTT), 1.0% dimehylsulfoxide (DMSO). Assays were performed at 1.0 mM ATP or at ATP Km of the EGFR enzymes. Reactions proceeded until between 10% to 20% total peptides were phosphorylated at room temperature (25° C.) and were terminated with 35 mM 2,2′,2″,2′″-(ethane-1,2-diyldinitrilo)tetraacetic acid (EDTA). Product was detected using the Caliper mobility shift detection method where the phosphorylated peptide (product) and substrate were electrophoretically separated and measured. Percent activity was plotted against log concentration of compound and points to generate an apparent IC50. The following enzyme forms of • EGFR were examples that were used in these assays: • EGFR WT (SignalChem, E10-112G) • EGFR L858R (SignalChem, E10-122BG) • EGFR (d746-750) (SignalChem, E10-122JG) • EGFR L858R C797S (SignalChem, E10-122ZG) • EGFR (d746-750) C797S (SignalChem, E10-122TG)

intracellular phosphorylation of EGFR (Tyr1068) in PC-9 cells, sequence (P00533 with tags, fused parts or gaps DEL746-750): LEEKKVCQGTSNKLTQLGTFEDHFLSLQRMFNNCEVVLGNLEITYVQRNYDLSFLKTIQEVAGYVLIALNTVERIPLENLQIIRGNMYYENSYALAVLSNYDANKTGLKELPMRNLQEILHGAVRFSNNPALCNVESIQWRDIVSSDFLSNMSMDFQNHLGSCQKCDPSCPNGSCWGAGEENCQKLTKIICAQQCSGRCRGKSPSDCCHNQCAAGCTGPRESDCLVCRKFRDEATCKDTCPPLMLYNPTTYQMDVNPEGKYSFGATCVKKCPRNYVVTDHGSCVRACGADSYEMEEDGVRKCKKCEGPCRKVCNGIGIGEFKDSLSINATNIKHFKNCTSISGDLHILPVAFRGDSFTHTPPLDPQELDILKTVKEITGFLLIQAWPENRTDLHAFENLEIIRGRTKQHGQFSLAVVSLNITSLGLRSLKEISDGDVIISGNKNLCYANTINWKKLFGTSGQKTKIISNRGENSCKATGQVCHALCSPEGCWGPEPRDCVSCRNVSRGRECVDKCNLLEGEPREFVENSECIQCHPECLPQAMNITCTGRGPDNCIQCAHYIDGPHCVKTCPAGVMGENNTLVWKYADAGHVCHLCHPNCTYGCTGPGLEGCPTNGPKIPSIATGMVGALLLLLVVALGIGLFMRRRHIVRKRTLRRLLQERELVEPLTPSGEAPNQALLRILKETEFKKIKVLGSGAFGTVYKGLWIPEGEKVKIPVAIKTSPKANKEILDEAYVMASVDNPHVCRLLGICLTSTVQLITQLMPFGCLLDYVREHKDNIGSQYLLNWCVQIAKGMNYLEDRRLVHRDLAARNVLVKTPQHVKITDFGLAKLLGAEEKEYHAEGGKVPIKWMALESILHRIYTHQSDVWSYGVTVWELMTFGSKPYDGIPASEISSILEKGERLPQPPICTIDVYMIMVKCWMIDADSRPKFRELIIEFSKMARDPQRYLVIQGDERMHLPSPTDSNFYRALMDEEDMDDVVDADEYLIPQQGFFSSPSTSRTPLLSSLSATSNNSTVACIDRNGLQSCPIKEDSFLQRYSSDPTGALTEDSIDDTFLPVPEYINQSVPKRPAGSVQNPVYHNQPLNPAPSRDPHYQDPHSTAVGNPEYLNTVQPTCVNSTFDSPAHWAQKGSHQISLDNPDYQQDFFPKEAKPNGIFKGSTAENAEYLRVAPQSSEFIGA

Compound	pIC50 [1]	pIC50 [2]
CN1CC[C@H](Oc2cc(-c3cnn(C)c3)cc3ncnc(Nc4ccc5ncsc5c4)c23)[C@@H](O)C1 (single isomer, unassigned) [Example A36]	7.30 to 8.00	≥ 8.00
Cn1cc(-c2cc(O[C@@H]3C[C@@H](O)[C@@H](O)C3)c3c(Nc4ccc5ncsc5c4)ncnc3c2)cn1 (single isomer, unassigned) [Example A23]	7.30 to 8.00	≥ 8.00
CO[C@@H]1CN(C)CC[C@H]1Oc1cc(-c2cnn(C)c2)cc2ncnc(Nc3ccc4ncsc4c3)c12 (single isomer, unassigned) [Example A44]	7.30 to 8.00	≥ 8.00
CN1C[C@H](F)C[C@H](Oc2cc(-c3cnn(C)c3)cc3ncnc(Nc4ccc5ncsc5c4)c23)C1 (single isomer, unassigned) [Example 337]	–	≥ 8.00
Cn1cc(-c2cc(O[C@@H]3CCOC[C@@H]3F)c3c(Nc4ccc5ncsc5c4)ncnc3c2)cn1 (single isomer, unassigned) [Example 44]	7.30 to 8.00	≥ 8.00
Cn1cc(-c2cc(OCC3CCOC3)c3c(Nc4ccc5ncsc5c4)ncnc3c2)cn1 (single isomer, unassigned) [Example 42]	7.30 to 8.00	≥ 8.00
CC(Oc1cc(-c2cn[nH]c2)cc2ncnc(Nc3ccc4ncsc4c3)c12)C1COC1 (single isomer, unassigned) [Example 123]	–	≥ 8.00
C[C@@H](Oc1cc(-c2cnn(C)c2)cc2ncnc(Nc3ccc4ncsc4c3F)c12)C1(C)COC1 (single isomer, unassigned) [Example 87]	–	≥ 8.00
COC[C@H](C)Oc1cc(N2CCN(C)CC2)cc2ncnc(Nc3ccc4ncsc4c3)c12 (single isomer, unassigned) [Example 206]	7.30 to 8.00	≥ 8.00
Cn1cc(-c2cc(O[C@H]3CCNC[C@@H]3F)c3c(Nc4ccc5ncsc5c4)ncnc3c2)cn1 (single isomer, unassigned) [Example 347]	–	≥ 8.00
C[C@@H](Oc1cc(-c2cnn(C(C)(C)CO)c2)cc2ncnc(Nc3ccc4ncsc4c3)c12)C1COC1 (single isomer, unassigned) [Example 292]	–	≥ 8.00
C[C@@H](Oc1cc(-c2cnn(C)c2)cc2ncnc(Nc3ccc4ncsc4c3)c12)C(F)F (single isomer, unassigned) [Example 53]	–	≥ 8.00
CC[C@@H](Oc1cc(-c2cnn(C)c2)cc2ncnc(Nc3ccc4ncsc4c3F)c12)C1COC1 (single isomer, unassigned) [Example 93]	–	≥ 8.00
COc1nn(C)cc1-c1cc(O[C@H](C)C2COC2)c2c(Nc3ccc4ncsc4c3)ncnc2c1 (single isomer, unassigned) [Example 171]	–	≥ 8.00
COc1cc2c(Nc3ccc4ncsc4c3F)ncnc2cc1-c1cnn(C)c1 [Example 265, 7-fluoro-N-(6-methoxy-7-(1-methyl-1H-pyrazol-4-yl)quinazolin-4-yl)benzo[d]thiazol-6-amine]	≥ 8.00	≥ 8.00
CN1CC[C@H](Oc2cc(-c3cnn(C)c3)cc3ncnc(Nc4ccc5ncsc5c4)c23)[C@@H](F)C1 (single isomer, unassigned) [Example 345]	–	≥ 8.00
COC[C@H](C)Oc1cc(N2CCN(C(C)C)C2=O)cc2ncnc(Nc3ccc4ncsc4c3)c12 (single isomer, unassigned) [Example 119]	–	≥ 8.00
CN1C[C@H](F)[C@H](Oc2cc(-c3cnn(C)c3)cc3ncnc(Nc4ccc5ncsc5c4)c23)C1 (single isomer, unassigned) [Example 381]	7.30 to 8.00	≥ 8.00
CN1CC[C@@H](Oc2cc(-c3cnn(C)c3)cc3ncnc(Nc4ccc5ncsc5c4)c23)[C@@H](F)C1 (single isomer, unassigned) [Example 341]	–	≥ 8.00

Compound	pIC50 [1]	pIC50 [2]
C[C@@H](Oc1cc(-c2cnn(CC(C)(C)O)c2)cc2ncnc(Nc3ccc4ncsc4c3)c12)C1COC1 (single isomer, unassigned) [Example 128]	–	≥ 8.00
CN1CC[C@@H](Nc2cc3c(Nc4ccc5ncsc5c4)ncnc3cc2-c2ccn(C)n2)[C@H](F)C1 (single isomer, unassigned) [Example 328]	–	≥ 8.00
C[C@@H](Oc1cc(-c2cnn(C)c2)cc2ncnc(Nc3ccc4ncsc4c3F)c12)C(=O)N(C)C (single isomer, unassigned) [Example 280]	–	≥ 8.00
C[C@H](CO)Oc1cc(N2CCN(C)CC2)cc2ncnc(Nc3ccc4ncsc4c3)c12 (single isomer, unassigned) [Example 294]	7.30 to 8.00	≥ 8.00
C[C@@H](Oc1cc(-c2cnn(C)c2)cc2ncnc(Nc3ccc4ncsc4c3)c12)[C@H]1CN(C)CCO1 (single isomer, unassigned) [Example 210]	–	≥ 8.00
C[C@H](CO)n1cc(-c2cc(O[C@H](C)C3COC3)c3c(Nc4ccc5ncsc5c4)ncnc3c2)cn1 (single isomer, unassigned) [Example 298]	–	≥ 8.00
CN1CC[C@H](Oc2cc(-c3cnn(C)c3)cc3ncnc(Nc4ccc5ncsc5c4F)c23)C1 [Example 16, (S)-7-fluoro-N-(7-(1-methyl-1H-pyrazol-4-yl)-5-((1-methylpyrrolidin-3-yl)oxy)quinazolin-4-yl)benzo[d]thiazol-6-amine]	–	7.30 to 8.00
C[C@H](CN(C)C)Oc1cc(N2CC[C@@H](C(C)(C)O)C2)cc2ncnc(Nc3ccc4ncsc4c3)c12 (single isomer, unassigned) [Example 156]	–	≥ 8.00
Cn1cc(-c2cc(O[C@@H]3CC[C@@H]3O)c3c(Nc4ccc5ncsc5c4)ncnc3c2)cn1 (single isomer, unassigned) [Example A52]	–	≥ 8.00
COc1nn(C)cc1-c1cc(O[C@H]2CCNC[C@@H]2F)c2c(Nc3ccc4ncsc4c3)ncnc2c1 (single isomer, unassigned) [Example 361]	–	≥ 8.00
COc1nn(C)cc1-c1cc(O[C@H](C)C2COC2)c2c(Nc3ccc4ncsc4c3F)ncnc2c1 (single isomer, unassigned) [Example 79]	–	≥ 8.00
COc1nn(C)cc1-c1cc(O[C@@H](C)C(=O)N(C)C)c2c(Nc3ccc4ncsc4c3F)ncnc2c1 (single isomer, unassigned) [Example 288]	–	≥ 8.00
C[C@@H](Oc1cc(-c2cnn(C)c2)cc2ncnc(Nc3ccc4ncsc4c3)c12)[C@H]1CNCCO1 (single isomer, unassigned) [Example 208]	–	≥ 8.00
CN(C)C[C@@H](Oc1cc(-c2cnn(C)c2)cc2ncnc(Nc3ccc4ncsc4c3)c12)C(F)F (single isomer, unassigned) [Example 152]	–	≥ 8.00
C[C@H](Oc1cc(-c2cnn(C)c2)cc2ncnc(Nc3ccc4ncsc4c3F)c12)C(=O)N1CCOCC1 (single isomer, unassigned) [Example 283]	–	≥ 8.00
C[C@H](CO)Oc1cc(-c2cnn(C)c2)cc2ncnc(Nc3ccc4ncsc4c3F)c12 (single isomer, unassigned) [Example 290]	–	≥ 8.00
CN1CC[C@H](Nc2cc3c(Nc4ccc5ncsc5c4)ncnc3cc2-c2ccn(C)n2)[C@H](F)C1 (single isomer, unassigned) [Example A06, N4-(benzo[d]thiazol-6-yl)-N6-((3S,4R)-3-fluoro-1-methylpiperidin-4-yl)-7-(1-methyl-1H-pyrazol-3-yl)quinazoline-4,6-diamine or N4-(benzo[d]thiazol-6-yl)-N6-((3R,4S)-3-fluoro-1-methylpiperidin-4-yl)-7-(1-methyl-1H-pyrazol-3-yl)quinazoline-4,6-diamine]	–	≥ 8.00
C[C@@H](Oc1cc(-c2cnn(C)c2)cc2ncnc(Nc3ccc4ncsc4c3F)c12)[C@H]1CCOC1 (single isomer, unassigned) [Example 89]	–	≥ 8.00
COCC[C@@H](C)Oc1cc(-c2cnn(C)c2)cc2ncnc(Nc3ccc4ncsc4c3F)c12 (single isomer, unassigned) [Example 109]	–	≥ 8.00

From US20260207602A1, “EGFR INHIBITORS” (Blueprint Medicines Corporation, priority 2022, published 2026)
